We go through 9 molecules from US6365610B1, “Ozonide compounds with inhibitory activity for urokinase production and angiogenesis” (Taiho Pharmaceutical Company Ltd., priority 1998, dated 2002).

The test system of data set [1] is fertilized egg chorioallantonic membrane (CAM). The data set is described as follows: Angiogenesis inhibition test, fertilized egg chorioallantonic membrane (CAM) method. The data set is classed as in vivo, hen. The conditions noted are these: scored points over all eggs. As for the experimental part:
This experiment was conducted substantially according to the fertilized egg chorioallantonic membrane (abbreviated as CAM) method described in ADVANCES IN CANCER RESEARCH, vol. 43, 175-203. The fertilized hen's eggs (Plymouth Rock breed×white leghorn breed) used were purchased from Gotoh Brooder (Gifu Prefecture) and incubated in an incubator (product of Tokyo Rikagaku Kikai Co., Ltd.) at a humidity of 70% and 37° C.
The air chamber of each egg was located by illuminating the egg and the egg shell was injured with a rotary file at two locations, i.e., an upper portion of the air chamber and a side portion of the egg on day 3, taking the day when the incubation was started as day 0. About 3 ml of the albumen was aspirated through the side hole with a syringe for removal, and the air was removed from the upper portion with a dropper. With the side hole sealed with OpSite (product of Smith and Nephew Ltd.), the air chamber upper portion was injured in the form of a 1 cm square, the egg shell and the egg membrane were removed from the square area, and the opening was sealed with OpSite. The seal was removed from the opening on day 5 to form a window, which was sealed with Tegaderm (product of 3M Health Care Ltd.). A disk is made from 20 μl of 1% gelatin with drying, 20 μl of 0.5% aqueous methyl cellulose solution containing an active component of the invention was applied to the disk to form a superposed layer, and the resulting disk was dried in a clean bench. The Tegaderm seal was removed, the disk was placed at rest on the CAM, and the window was sealed again. The shell was removed from an upper portion of the egg on day 7, and 1 ml of 20% Intralipos (product of Green Cross Co., Ltd.) was injected into the egg under the CAM. The CAM was observed under a surgical microscope and photographed at a magnification of ×4 to ×8.
The effect to inhibit angiogenesis was determined substantially according to the method described in Cancer Lett., 48(2), 157-62(1989). More specifically, a vessel-free region, when found over a distance of at least 2 mm around the methyl cellulose layer, was interpreted as indicating angiogenesis inhibitory activity (+), weak inhibitory activity of less than 2 mm as indicating quasi-positive (±), and no vessel-free region within 2 mm as indicating negative (−). At least six fertilized eggs were used for testing. The angiogenesis inhibition ratio was determined by evaluating (+) as 1 point, (±) as 0.5 point and (−) as 0 point, and calculating the ratio of the points each compound scored for all the eggs used.

A further data set concerns urokinase. The data set is described as follows: Urokinase production inhibition test (HT-1080 culture supernatant urokinase activity). The format is cell-based, Human. The note with it: HT-1080 cells. How it is done:
This test was conducted substantially according to the method described in Biochem. Biophys. Res. Commun., 142(1), 147-54(1987) as will be described in detail below.
Human fibrosarcoma cells HT-1080 were purchased from American Type Culture Collection (product of Rockville). HT-1080 cells were cultured at 37° C. in a 5% CO2 incubator in RPMI-1640 medium (product of Nissui Seiyaku Co., Ltd.) containing 10% (v/v) of […] bovine fetal serum (product of ATLANTA Biological). The cells were suspended in 0.2% trypsin 2 mM EDTA solution for use in the experiment.
The suspension of HT-1080 cells as adjusted to 1×10^5 cells/ml was placed onto a 96-well flat-bottomed incubation plate dividedly in 200 μl quantities (2×10^4 cells/well) and incubated at 37° C. for 4 hours. The supernatant was thereafter removed and replaced with the same amount of serum-free medium [hereinafter referred to as “serum(−)”], followed by incubation for 20 hours. Subsequently, serum(−) was replaced with 199 μl of serum-containing medium [hereinafter referred to as “serum(+)”], and 1 μl of a sample solution containing an active component of the invention and prepared by dissolving the component in dimethyl sulfoxide (DMSO) was added to serum(+) in the incubation plate, followed by further incubation at 37° C. for 24 hours. The resulting supernatant was removed under suction, serum(−) was added in 200 μl quantities, followed by incubation again for 24 hours, and the supernatant of the culture was collected.
To determine the conditions for measuring urokinase activity in the supernatant, the reaction time and the concentration of a synthetic substrate were investigated using recombinant human urokinase (product of CHROMOGENIX AB) and VLKpA (valylleucyllysyl p-nitroamide, product of Sigma Chemical CO.) serving as the […] at a constant concentration (2.8 μg/ml) of plasminogen. When the culture supernatant of HT-1080 cells was checked for urokinase activity preliminarily, the activity was about 0.02 IU/μl. An urokinase solution with activity of 0.02 IU/μl was reacted with the synthetic substrate of varying concentrations.
A 85 μl portion of the culture supernatant and 15 μl of substrate reaction mixture [427 mM Tris-HCl (pH 8.0), 27 mM EDTA (pH 8.0), 1.5 mM VLKpA, 125 μg/ml plasminogen (product of CHROMOGENIX AB] were mixed together in a 96-well incubation plate and reacted at 37° C. for 30 minutes, and the reaction mixture was checked for absorbance at 405 nm using an immunoreader. The urokinase production inhibition ratio was calculated from the following equation.
Inhibition ratio (%)=(1−T/C)×100
wherein T is the average absorbance of a group given the sample, and C is the average absorbance of a control group.

Data set [2] has as its system Lewis lung cancer strain (LLC). The data set is classed as in vivo. How it is done: The test animals used were 7-week-old female C57BL/6 mice (Nippon Charles River) weighing 17 to 20 g. A subcutaneous tumor (1.0×10^5 cells) of Lewis lung cancer strain (LLC) was transplanted in the mice, and a suspension of a test compound in an aqueous solution of 3% ethanol and 5% gum arabic was given on day 3 and thereafter. The test compound used was compound 6, which was intraperitoneally administered at a dose of 15 mg/kg every other day. On the other hand, 100 μl of 3% ethanol-5% gum arabic aqueous solution was intraperitoneally given to a control group. The mice were checked for body weight and the major and minor diameters of the primary tumor every other day, and an estimated tumor volume (V) was determined by calculating (minor diameter)^2×(major diameter)÷2. The tumor growth inhibition ratio (%) was calculated from the estimated tumor volume of day 24 after the transplantation using the following equation.
Tumor growth inhibition ratio (%)=(1−Tv/Cv)×100
wherein Tv is the tumor volume (mm^3) of the group given the test compound, and Cv is the tumor volume (mm^3) of the control group.
The tumor was excised from each mouse, fixed with acetone, and checked for the number of lesions metastasized to the lungs to calculate the lung metastasis inhibition ratio (%) from the following equation.
Lung metastasis inhibition ratio (%)=(1−T/C)×100
wherein T is the number of metastatic nodules in the group given the test compound, and C is the number of metastatic nodules in the control group.

[3] abbreviates: 15 mg/kg intraperitoneally every other day, LLC-bearing mice.

One may read the melting point as the temperature, or range, at which the solid turns liquid. Consider `CC12OOC(c3ccccc3)(O1)c1ccccc1C2c1ccccc1` (stereo not drawn) [Compound 1, 4,5-dihydro-1,5-diphenyl-4-methyl-1,4-epoxy-1H-2,3-benzodioxepin], for which the melting point is 178 to 180 °C. The “angiogenesis inhibition ratio (%)” value in data set [1] (dosage 10 μg/egg) stood at 67%. Besides, the “angiogenesis inhibition ratio (%)” value in data set [1] (dosage 40 μg/egg) amounted to 75%. In the data set on urokinase (concentration 1.56 μg/ml), the “urokinase inhibition ratio (%)” value was 90.0%. Moreover, the “urokinase inhibition ratio (%)” value with urokinase (concentration 3.13 μg/ml) was found to be 90.5%.
`Cc1ccc(C23OOC(c4ccccc4)(O2)C(C)c2ccccc23)cc1` (stereo not drawn) [Compound 2, 4,5-dihydro-5-methyl-4-phenyl-1-p-tolyl-1,4-epoxy-1H-2,3-benzodioxepin] gave a melting point of 139 to 141 °C. Also, in the data set with urokinase (concentration 12.5 μg/ml), the “urokinase inhibition ratio (%)” value is on record as 88.3%.
Molecule `COc1ccc(C23OOC(c4ccccc4)(O2)C(C)c2ccccc23)cc1` (stereo not drawn) [Compound 3, 4,5-dihydro-1-p-anisyl-5-methyl-4-phenyl-1,4-epoxy-1H-2,3-benzodioxepin] registered a melting point of 135 to 136 °C. Also, the “angiogenesis inhibition ratio (%)” value in data set [1] (dosage 40 μg/egg) came to 63%. Besides, the “urokinase inhibition ratio (%)” value in the data set with urokinase (concentration 3.13 μg/ml) worked out at 93.8%. Besides, the “urokinase inhibition ratio (%)” value with urokinase (concentration 6.25 μg/ml) stood at 94.4%.
Consider `CC(C)C1c2ccccc2C2(c3ccccc3)OOC1(c1ccccc1)O2` (stereo not drawn) [Compound 4, 4,5-dihydro-1,4-diphenyl-5-isopropyl-1,4-epoxy-1H-2,3-benzodioxepin], for which the melting point fell in the range of 130 to 132 °C.
As for `c1ccc(C23OOC(O2)c2cccc4cccc3c24)cc1` (stereo not drawn) [Compound 6, 1-phenyl-1,4-epoxy-1H,4H-naphtho[1,8-de][1,2]dioxepin], the “angiogenesis inhibition ratio (%)” value in data set [1] (dosage 40 μg/egg) was 100%. Further, the “urokinase inhibition ratio (%)” value in the data set on urokinase (concentration 50.0 μg/ml) was 90.1%. Further, in data set [2] (15 mg/kg intraperitoneally every other day from day 3, estimated tumor volume of day 24, subcutaneous LLC in mice), the “tumor growth inhibition ratio” value is on record as 59.2%. The “lung metastasis inhibition ratio” value in data set [2] (15 mg/kg intraperitoneally every other day from day 3, number of metastatic nodules in lungs, LLC in mice) is on record as 75.8%. Moreover, in data set [2] (setting [3]), the “death in the mice” value is reported as “no death” and the “reduction in body weight” value was “little or no reduction in body weight”.
Turning to `c1ccc(C2c3ccccc3C3OC2(c2ccccc2)ON3c2ccccc2)cc1` (stereo not drawn) [Compound 8, 1,2,4,5-tetrahydro-2,4,5-triphenyl-1,4-epoxy-3,2-benzoxazepin], the melting point lay within 155 to 156 °C. Moreover, in data set [1] (dosage 40 μg/egg), the “angiogenesis inhibition ratio (%)” value turned out to be 56%. In the data set with urokinase (concentration 25.0 μg/ml), the “urokinase inhibition ratio (%)” value was 82.2%. Further, the “urokinase inhibition ratio (%)” value in the data set on urokinase (concentration 50.0 μg/ml) amounted to 93.4%.
With `CC1c2ccccc2C2(c3ccccc3)OOC1O2` (stereo not drawn) [Compound 9, 4,5-dihydro-5-methyl-1-phenyl-1,4-epoxy-1H-2,3-benzodioxepin], the melting point was 127 to 128 °C.
`c1ccc(C2c3ccccc3C3(c4ccccc4)OOC2(c2ccccc2)O3)cc1` (stereo not drawn) [Compound 10, 4,5-dihydro-1,4,5-triphenyl-1,4-epoxy-1H-2,3-benzodioxepin] displayed a melting point of 171 to 173 °C. For the same molecule, the “urokinase inhibition ratio (%)” value with urokinase (concentration 3.13 μg/ml) is 94.1%.
The molecule `c1ccc(C23Cc4ccccc4C(c4ccccc4)(OO2)O3)cc1` (stereo not drawn) [Compound 11, 4,5-dihydro-1,4-diphenyl-1,4-epoxy-1H-2,3-benzodioxepin] yielded a melting point of 119 °C. In addition, the “urokinase inhibition ratio (%)” value with urokinase (concentration 3.13 μg/ml) is listed as 91.4%.
